Measured values taken from patent US20110319461A1, “NOVEL SALTS, POLYMORPHS, AND SYNTHETIC PROCESSES REGARDING IMIDAZOLE DERIVATIVE” (Ore Pharmaceuticals Inc., priority 2010, published 2011).
Read-outs that look alike come from different tables or passages of the source.

Legend:
[1] = system: upper gastrointestinal tract of the mouse; experiment: Anti-inflammatory effects in the upper gastrointestinal tract; format: in vivo
[2] = system: NSAID-induced gastric damage in rats; experiment: NSAID-induced gastric damage; format: in vivo
[3] = system: acute dextran sodium sulfate-induced colitis in mice; experiment: Acute dextran sodium sulfate (DSS)-induced colitis; format: in vivo; details: for DSS-induced colon shortening: high dose Compound (I) and sulfasalazine
Text: 2-[1-(S)-carboxy-2(S)-[3-(3,5-dichloro-benzyl)-3H-imidazol-4-yl]-ethylamino]-4-methyl-pentanoic acid, herein also referred to as Compound (I), is described in U.S. Pat. No. 6,632,830, U.S. Pat. No. 7,045,532, and WO 00/066104, each herein incorporated by reference in their entirety. Additionally, Compound (I) is discussed in “Substrate-Based Design of the First Class of Angiotensin-Converting Enzyme-Related Carboxypeptidase (ACE2) Inhibitors”, Dales, N. A., et al., J. Amer. Chem. Soc., 2002, 124, 11852-11853, incorporated by reference. As reported by Byrnes et al., Effects of the ACE2 inhibitor GL1001 on acute dextran sodium sulfate-induced colitis in mice, Inflamm. […] Doses of Compound (I) ameliorated DSS-induced disease activity, including rectal prolapsed and intestinal bleeding. […] Compound (I) provides therapeutic potential for inflammatory bowel disease.
Exposure to DSS prior to vehicle treatment (vehicle+DSS group) produced a time-dependent decrease in body weight that recovered by day 15. This body weight loss and recovery was similar in animals having received repeated doses of Compound (I) (300 mg/kg).
Disease activity index (DAI), namely rectal prolapsed, stool consistency, and fecal occult blood) was assessed every other day throughout the experiment. By experimental day 7, significant DSS-induced disease began to emerge, and trends toward recovery were observed by day 11. Statistical analyses were conducted on data obtained on the days of peak severity: day 7 (presence of fecal blood and diarrhea) and day 9 (rectal prolapse). All DAI data were analyzed by one-way ANOVA. Compared to non-DSS controls, DSS treatment markedly elevated scores for fecal occult blood, stoll consistency, and rectal prolapsed. These effects were attenuated by Compound (I) (300 mg/kg).
On experimental day 15, colon was obtained from each animal and length was measured. […] No effects of 30 or 100 mg/kg on DSS-induced colon shrinkage were observed (P>0.05 for all). Total histopathology score (inflammation+glandular epithelial loss+mucosal erosion) for each treatment group is represented with a maximum obtainable score of 15. One-way ANOVA indicated significant DSS_induced damage (vs. non-DSS control) in each region studied, with the most damage occurring in the distal colon.

[4] = Water solubility; format: physicochemical
[5] = Storage stability of the drug substance; format: physicochemical
[6] = biological target: ACE2 (Homo sapiens, UniProt Q9BYF1); details: cited from earlier work
[7] = biological target: ACE (Homo sapiens, UniProt P12821); details: per Dales et al.; read-out: IC50 against ACE (selectivity); cited from earlier work
[8] = biological target: T1, CPDA (Bos taurus, UniProt P00730); details: per Dales et al.; read-out: IC50 against CPDA (selectivity); cited from earlier work
T1 sequence (P00730 111-419): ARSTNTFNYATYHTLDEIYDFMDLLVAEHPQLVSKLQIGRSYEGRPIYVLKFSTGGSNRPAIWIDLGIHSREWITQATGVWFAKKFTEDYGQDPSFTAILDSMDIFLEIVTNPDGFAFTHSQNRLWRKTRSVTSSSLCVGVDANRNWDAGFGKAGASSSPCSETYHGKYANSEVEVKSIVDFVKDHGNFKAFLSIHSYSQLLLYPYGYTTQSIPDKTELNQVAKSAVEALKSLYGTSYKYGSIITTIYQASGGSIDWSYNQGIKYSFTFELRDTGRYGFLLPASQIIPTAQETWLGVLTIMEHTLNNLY

[9] = system: acute dextran sodium sulfate-induced colitis in mice; details: as reported by Byrnes et al., cited from earlier work
[10] = profound effect in the distal segment

ACE2, sequence (Q9BYF1 18-805): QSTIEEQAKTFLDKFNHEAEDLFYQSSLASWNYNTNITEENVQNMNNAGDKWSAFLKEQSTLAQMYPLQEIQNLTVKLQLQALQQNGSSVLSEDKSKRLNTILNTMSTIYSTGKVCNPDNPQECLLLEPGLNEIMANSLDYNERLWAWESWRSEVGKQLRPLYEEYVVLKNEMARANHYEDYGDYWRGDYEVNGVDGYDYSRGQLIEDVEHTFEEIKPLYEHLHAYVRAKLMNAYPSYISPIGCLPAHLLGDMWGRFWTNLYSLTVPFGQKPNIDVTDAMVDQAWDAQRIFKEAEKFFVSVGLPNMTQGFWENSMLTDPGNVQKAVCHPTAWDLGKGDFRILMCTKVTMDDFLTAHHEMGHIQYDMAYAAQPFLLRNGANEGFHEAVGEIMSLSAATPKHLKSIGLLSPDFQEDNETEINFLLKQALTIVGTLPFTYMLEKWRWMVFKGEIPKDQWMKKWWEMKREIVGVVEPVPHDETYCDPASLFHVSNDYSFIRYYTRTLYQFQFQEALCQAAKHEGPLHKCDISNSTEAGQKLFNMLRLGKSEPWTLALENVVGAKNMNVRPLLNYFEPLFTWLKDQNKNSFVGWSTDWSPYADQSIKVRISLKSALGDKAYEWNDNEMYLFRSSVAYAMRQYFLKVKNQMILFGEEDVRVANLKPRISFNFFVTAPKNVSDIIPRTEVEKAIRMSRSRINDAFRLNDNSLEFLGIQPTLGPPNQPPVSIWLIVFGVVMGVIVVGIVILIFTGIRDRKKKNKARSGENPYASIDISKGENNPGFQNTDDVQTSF
ACE, sequence (P12821 1-732 isoform P12821-3): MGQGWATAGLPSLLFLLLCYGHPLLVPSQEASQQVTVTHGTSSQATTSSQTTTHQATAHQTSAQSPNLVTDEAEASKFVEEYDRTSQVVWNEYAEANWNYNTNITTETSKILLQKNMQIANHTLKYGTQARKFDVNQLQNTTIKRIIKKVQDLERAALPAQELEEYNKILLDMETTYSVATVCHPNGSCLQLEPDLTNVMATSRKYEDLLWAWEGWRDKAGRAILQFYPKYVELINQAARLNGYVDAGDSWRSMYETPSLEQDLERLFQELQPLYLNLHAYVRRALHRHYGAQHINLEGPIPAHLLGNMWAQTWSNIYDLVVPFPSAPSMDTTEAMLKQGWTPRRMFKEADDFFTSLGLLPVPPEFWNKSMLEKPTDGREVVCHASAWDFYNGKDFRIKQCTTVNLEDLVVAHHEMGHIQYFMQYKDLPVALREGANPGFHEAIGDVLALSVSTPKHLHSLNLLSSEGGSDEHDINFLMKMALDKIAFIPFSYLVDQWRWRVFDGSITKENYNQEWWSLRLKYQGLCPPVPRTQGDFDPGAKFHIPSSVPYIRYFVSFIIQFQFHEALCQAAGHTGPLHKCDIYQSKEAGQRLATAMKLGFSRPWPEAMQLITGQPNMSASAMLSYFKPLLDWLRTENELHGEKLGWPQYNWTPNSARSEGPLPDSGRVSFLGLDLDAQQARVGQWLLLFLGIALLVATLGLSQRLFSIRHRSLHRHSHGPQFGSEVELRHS

With `CC(C)C[C@H](N[C@@H](Cc1cncn1Cc1cc(Cl)cc(Cl)c1)C(=O)O)C(=O)O` [Compound (I), 2-[1-(S)-carboxy-2(S)-[3-(3,5-dichloro-benzyl)-3H-imidazol-4-yl]-ethylamino]-4-methylpentanoic acid] the “anti-inflammatory effects in the upper gastrointestinal tract” value [1] was “exhibits anti-inflammatory effects”, the “protection against NSAID-induced gastric damage” value [2] was “protects against NSAID-induced gastric damage” and the body weight recovery ([3]; 30 mg/kg, by day 15) was “compete recovery by day 15”. The “body weight loss and recovery compared with vehicle+DSS group” value ([3]; 300 mg/kg repeated b.i.d., days 5-15) was “similar”, the “disease activity index (fecal occult blood, stool consistency, rectal prolapse) elevated by DSS” value ([3]; 300 mg/kg, day 7 and day 9) was “attenuated” and the “DSS-induced damage in the distal colon (total histopathology score)” value ([3]; 300 mg/kg, day 15) was “significantly attenuated”. For the same compound, the body weight reduction ([3]; 30 and 100 mg/kg, maximum effects on day 9) was “exhibited the largest weight reduction”, the “effect on any DAI parameter” value ([3]; 30 or 100 mg/kg, all P>0.05) was “no effects were observed” and the DSS-induced colon shrinkage ([3]; day 15, 30 or 100 mg/kg, P>0.05) was “No effects”. For the same compound, the DSS-induced colon shortening ([3]; day 15) was “reversed”, the “water solubility” value [4] was “excellent” and the “water solubility” value ([4]; listed as dicarboxylic acid) was “limited”. The “long-term stability / degradation” value ([5]; ambient temperature and humidity, 7 years) was “no apparent degradation”, the “ACE2 inhibitor potency and selectivity” value [6] was “potent and selective” and the IC50 [7] was > 50 µM. For the same compound, the IC50 [8] was > 50 µM, the “DSS-induced disease activity, including rectal prolapse and intestinal bleeding” value [9] was “ameliorated” and the colon pathology [9, 10] was “markedly attenuated”. The myeloperoxidase activity [9, 10] was “markedly attenuated”.
For `CC(C)C[C@@H](N[C@H](Cc1cncn1Cc1cc(Cl)cc(Cl)c1)C(=O)O)C(=O)O` [R,R isomer, 2-[1-(R)-carboxy-2(R)-[3-(3,5-dichloro-benzyl)-3H-imidazol-4-yl]-ethylamino]-4-methylpentanoic acid, reference compound], the IC50 ([6]; stereoisomers of Compound (I), per Dales et al., read-out: activity of the isomer (ACE2 inhibition)) is given as > 50 µM.
In the case of `CC(C)C[C@H](N[C@@H](Cc1cncn1Cc1cc(Cl)cc(Cl)c1)C(=O)[O-])C(=O)[O-].[Na+].[Na+]` [disodium salt anhydrate], the “stability” value ([5]; ambient temperatures) is reported as “unstable, thermally sensitive, and subject to oxidation at ambient temperatures”.
For `O=C(O)c1cc(/N=N/c2ccc(S(=O)(=O)Nc3ccccn3)cc2)ccc1O` [sulfasalazine, reference compound], the “rectal prolapse and bleeding (DAI)” value ([3]; 150 mg/kg, compared with Compound (I) 300 mg/kg) was “similarly efficacious”, the DSS-induced colon shortening ([3]; day 15) was “reversed” and the “body weight recovery compared with vehicle+DSS and Compound (I) 300 mg/kg groups” value ([3]; sulfasalazine-treated animals, day 15) was “did not recover to the same extent by day 15”.
